Experimental data: patent US10174065B2, “Antidiabetic enolic glucoside of phenylpyruvic acid” (ZADEC APS, priority 2010, dated 2019)

Columns and labels:
Type in all cases: in vivo
[1] = tested on: glucose stimulated insulin secretion; assay: Glucose stimulated insulin secretion rate AUC in prediabetic vervet monkeys (FIG. 2); conditions: versus untreated
Description: Prediabetic vervet monkeys (fasting plasma glucose levels between 4.0 and 5.5 mM) were treated with 10 ug/kg RX-1 3 times daily with meals for 7 days. Blood samples were collected following 1.75 g/kg oral glucose stimulation at 0, 5, 10, 15, 30, 60, 90, 120 and 180 minutes. AUC values calculated mean glucose stimulated insulin secretion values over the time interval 0-120 min. Four monkeys were used in each group (untreated, RX1-treated).

gene expression in liver = assay: Quantitative real-time PCR gene expression in liver of obese, insulin resistant Wistar rats
Description: (§1) Three week old male rats were fed a high fat diet for 24 weeks to induce obesity and insulin resistance. Thereafter, rats were treated with 0.3 mg/kg Rx-1 daily for two weeks, and then with 3 mg/kg Rx-1 daily for seven days. Fasting glucose concentrations were measured before treatment, after two weeks treatment with 0.3 mg/kg Rx-1 and then again after seven days treatment with 3 mg/kg Rx-1. After treatment with 3 mg/kg Rx-1 rats were terminated and liver, muscle and pancreas biopsies were taken. Quantitative real-time PCR was used to measure the expression of 12 genes in liver and muscle samples, and ten genes in pancreas samples.
(§2) Rats were housed at the Primate Unit (Medical Research Council, South Africa). Rat management including feeding, glucose measurements and terminations, were done according to standard operating procedures (Diabetes Discovery Platform, Medical Research Council). Briefly, three week old rats were fed a high fat diet for 24 weeks to induce T2D. The study group consisted of thirteen rats, eight rats were treated by daily gavage with 0.3 mg/kg Rx-1 for two weeks, and then with 3 mg/kg Rx-1 for seven days. Five rats were used as controls and were treated with water only for three weeks. Rats were terminated after treatment and liver, muscle and pancreas tissue harvested and stored in RNalater (Ambion) as recommended by the manufacturer. The study was approved by the ethics committee of the Medical Research Council of South Africa.
Tissue was removed from RNAlater, weighed (80-100 mg), and placed in a 2 ml microfuge tube containing 1 ml of Trizol (Invitrogen) and a stainless steel bead (Qiagen). Tissue was homogenised in the TissueLyser (Qiagen) at 25 Hz for 6 min, centrifuged at 12,000 g for 10 min at 4° C., and the supernatant removed and incubated at room temperature for 5 min. Thereafter, 0.2 ml of chloroform (Sigma) was added, shaken vigorously for 15 sec, and then incubated at room temperature for 3 min with occasional mixing. Samples were centrifuged 12,000 g for 15 min at 4° C. and the aqueous phase was transferred to a new tube. RNA was precipitated by adding 0.5 ml isopropanol, mixed well for 30 sec, and placed at −20° C. overnight. The following day, tubes were centrifuged at 12,000 g for 20 min at 4° C. The pellet was washed with 1 ml of 75% ethanol and centrifuged at 12,000 g for 15 min at 4° C. The wash step was repeated. After the second wash, the pellet was air dried by placing tubes with their lids open (on ice) in a PCR cabinet for 2 hours. Excess liquid was removed by blotting tubes on paper towel occasionally during this incubation. The pellet was resuspended by adding 100 μl RNase-free water and incubating at 55° C. for 10 min. RNA concentrations were determined using a spectrophotometer (Nanodrop Technologies). Thereafter, RNA was purified with the RNeasy Mini Kit according to the manufacturer's instructions (Qiagen) and concentrations again determined with the Nanodrop. Genomic DNA was removed by treating RNA with Turbo DNA-free DNase (Ambion) and incubating at 37° C. for 90 min according to the manufacturer's instructions, but using 1.5× the units of DNase and incubation time recommended by the kit. In brief, 20 μg RNA was incubated with 1.5 μl (3 units) DNase, 5 μl DNase buffer, and nuclease-free water in a final reaction volume of 50 μl for 45 min at 37° C., thereafter, another 3 units of DNase was added and incubated for a further 45 min. DNase was inactivated by adding ⅕ volume (10 μl) of the DNase inactivation reagent supplied with the kit. Reactions were incubated at room temperature for 2 min, and centrifuged at 14,000 rpm for 1.5 min. The supernatant was removed and RNA concentrations were measured using the Nanodrop. The quality of the DNase-treated RNA was determined with the RNA 6000 Nano kit using the 2100 Bioanalyser Lab-on-a-Chip system as recommended by the manufacturers (Agilent technologies). […]

[2] = tested on: gene expression in muscle; assay: Quantitative real-time PCR gene expression in muscle of obese, insulin resistant Wistar rats
Description: as §1, §2
RNA extracted from liver, muscle and pancreas tissue was converted to cDNA using the High Capacity Reverse Transcription kit as recommended by the manufacturers (Applied Biosystems). In brief, 2 μg of DNase-treated RNA was added to nuclease-free water in a volume of 10 μl. Thereafter, 2 μl reaction buffer, 0.8 μl dNTPs, 2 μl random primers, 1 μl RNase-inhibitor, 1 μl reverse transcriptase, and 3.2 μl nuclease-free water were added. The same reaction without the reverse transcription enzyme (minus RT reaction) was set-up to investigate genomic DNA contamination. Reactions were incubated at 25° C. for 10 min, 37° C. for 120 min, and 85° C. for 5 s to inactivate the reverse transcriptase. cDNA samples were stored at −20° C. until expression analysis.
For analysis of gene expression, 25 ng of cDNA prepared from liver, muscle and pancreas was mixed with 12.5 μl Taqman universal PCR master mix (Applied Biosystems), 1.25 μl gene-specific primer and probe mixtures (predeveloped Taqman gene expression assays, Applied Biosystems), and H2O in a final volume of 25 μl. The suffix _m represents an assay whose probe spans an exon-exon junction of the associated gene and therefore will not detect genomic DNA, while the suffix _s represents an assay whose primers and probes are designed within a single exon, such assays will detect genomic DNA.
The PCR reactions were conducted on the ABI 7500 Sequence Detection System Instrument (Applied Biosystems) using universal cycling conditions as described before. All samples were run in duplicate. Data generated on the ABI 7500 Instrument were analysed with the ABI Relative Quantitation (RQ) software (SDS V1.4) using a Ct threshold of 0.1. Relative expression levels were determined by using the 2^−ΔΔCt method, where ΔΔCt=(Ctgene studied−Cthousekeeping gene)treated−(Ctgene studied−Cthousekeeping gene)control. The gene expression was normalised to housekeeping genes to correct for differences in cDNA loading. Two gene expression assays, β-actin (ActB) and glyceraldehyde-3-phosphate dehydrogenase (Gapdh) (Table 1) were used as endogenous controls. Relative gene expression data generated by the RQ software for each of the two endogenous controls individually or the data normalised to the average of the two endogenous controls were imported into Microsoft Excel and analysed. […]

[3] = liver, 0.3 mg/kg two weeks then 3 mg/kg seven days
[4] = liver, not statistically significant

O=C(O)/C(=C/c1ccccc1)O[C@@H]1O[C@H](CO)[C@@H](O)[C@H](O)[C@H]1O [RX-1, 3-Phenyl-2-(3,4,5-trihydroxy-6-hydroxymethyl-tetrahydro-pyran-2-yloxy)-acrylic acid]
glycaemic control ([1]; 10 ug/kg 3 times daily for 7 days): better glycaemic control | decrease of glucose stimulated insulin secretion (AUC 0-120 min) ([1]; 10 ug/kg 3 times daily with meals for 7 days, 1.75 g/kg oral glucose stimulation, FIG. 2): 46% | Pi3k expression (gene expression in liver; liver only, not significant): upregulated | Gck gene expression (gene expression in liver; liver, 0.3 mg/kg daily two weeks then 3 mg/kg daily seven days, not statistically significant): increased | Glut1 expression (gene expression in liver; [3]): increased | Glut2 expression (gene expression in liver; [3]): increased | IR gene expression (gene expression in liver; [3]): upregulated | IRS1 mRNA levels (gene expression in liver; [3]): unchanged | IRS2 gene expression (gene expression in liver; [3]): increased | PPARα expression (gene expression in liver; [3]): significantly upregulated | GcgR gene expression (gene expression in liver; [4]): increased | SOCS1 mRNA expression (gene expression in liver; [4]): increased | SOCS3 mRNA expression (gene expression in liver; liver, statistically significant): increased | Gck mRNA levels [2]: decreased | Glut4 mRNA levels [2]: unaffected | IR gene expression [2]: did not affect | IRS1 mRNA levels [2]: unchanged | IRS2 mRNA levels [2]: unchanged | GcgR gene expression ([2]; not statistically significant): increased | SOCS1 mRNA expression ([2]; not statistically significant): increased | SOCS3 mRNA expression ([2]; not statistically significant): increased
